For 19 compounds, IC50, GI50 and inhibition results are on record in ChEMBL document CHEMBL5137005, “Development of Dual Inhibitors Targeting Epidermal Growth Factor Receptor in Cancer Therapy” (J Med Chem, 2022).

Structures are written as SMILES. Where only a bound is given, the exact number is not on record here.

Test [1] has as its target Tubulin. Kind of test: Inhibition of tubulin polymerization (unknown origin). In kind it is protein-complex assay, Homo sapiens.
Test [2] has as its target T1, Epidermal growth factor receptor (Homo sapiens, UniProt P00533). Put plainly: Inhibition of EGFR (unknown origin) by microplate reader.
Test [3] relates to A549. Put plainly: Growth inhibition of human A549 cells. The test is classed as functional.
Test [4] deals with MCF7. Kind of test: Growth inhibition of human MCF7 cells. The test is classed as functional.
Test [5] has as its system A-431. Kind of test: Growth inhibition of human A-431 cells. In kind it is functional.
Test [6] addresses Histone deacetylase. Kind of test: Inhibition of HDAC in human HeLa cell nuclear extract using fluorogenic Boc-Lys(acetyl)-AMC as substrate preincubated for 5 mins followed by addition of substrate measured after 20 mins by microplate reader. The test is classed as cell-free.
Test [7] deals with Nuclear factor NF-kappa-B complex (Homo sapiens, UniProt P19838+Q00653+Q04206). Kind of test: Inhibition of NF-kappaB (unknown origin). In kind it is protein-complex assay.
Chain of Nuclear factor NF-kappa-B complex (P19838 1-433 limits assumed): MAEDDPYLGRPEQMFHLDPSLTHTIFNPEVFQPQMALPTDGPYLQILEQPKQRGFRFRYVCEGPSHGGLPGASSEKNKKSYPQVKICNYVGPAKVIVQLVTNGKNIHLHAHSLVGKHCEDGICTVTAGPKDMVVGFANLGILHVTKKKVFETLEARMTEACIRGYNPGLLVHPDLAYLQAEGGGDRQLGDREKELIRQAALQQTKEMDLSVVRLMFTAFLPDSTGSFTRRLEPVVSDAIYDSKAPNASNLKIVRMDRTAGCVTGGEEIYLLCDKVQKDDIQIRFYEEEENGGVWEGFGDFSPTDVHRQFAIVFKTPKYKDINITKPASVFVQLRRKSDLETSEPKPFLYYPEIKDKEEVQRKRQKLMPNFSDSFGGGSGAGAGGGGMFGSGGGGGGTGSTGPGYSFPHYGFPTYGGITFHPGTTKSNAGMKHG
Chain of Nuclear factor NF-kappa-B complex (Q00653 1-454 limits assumed): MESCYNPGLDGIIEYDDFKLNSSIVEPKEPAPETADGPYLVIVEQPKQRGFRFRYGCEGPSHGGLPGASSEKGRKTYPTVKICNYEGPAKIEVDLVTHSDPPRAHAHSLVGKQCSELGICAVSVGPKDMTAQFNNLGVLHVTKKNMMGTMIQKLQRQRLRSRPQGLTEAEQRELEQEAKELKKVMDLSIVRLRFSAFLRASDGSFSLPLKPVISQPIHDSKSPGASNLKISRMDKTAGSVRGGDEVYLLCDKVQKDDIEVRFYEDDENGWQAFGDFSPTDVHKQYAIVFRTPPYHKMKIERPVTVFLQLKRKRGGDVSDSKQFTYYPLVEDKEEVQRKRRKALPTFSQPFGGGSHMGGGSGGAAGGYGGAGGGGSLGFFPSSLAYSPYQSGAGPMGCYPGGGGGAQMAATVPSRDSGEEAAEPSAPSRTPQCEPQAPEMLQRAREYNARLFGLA
Chain of Nuclear factor NF-kappa-B complex (Q04206 whole entry): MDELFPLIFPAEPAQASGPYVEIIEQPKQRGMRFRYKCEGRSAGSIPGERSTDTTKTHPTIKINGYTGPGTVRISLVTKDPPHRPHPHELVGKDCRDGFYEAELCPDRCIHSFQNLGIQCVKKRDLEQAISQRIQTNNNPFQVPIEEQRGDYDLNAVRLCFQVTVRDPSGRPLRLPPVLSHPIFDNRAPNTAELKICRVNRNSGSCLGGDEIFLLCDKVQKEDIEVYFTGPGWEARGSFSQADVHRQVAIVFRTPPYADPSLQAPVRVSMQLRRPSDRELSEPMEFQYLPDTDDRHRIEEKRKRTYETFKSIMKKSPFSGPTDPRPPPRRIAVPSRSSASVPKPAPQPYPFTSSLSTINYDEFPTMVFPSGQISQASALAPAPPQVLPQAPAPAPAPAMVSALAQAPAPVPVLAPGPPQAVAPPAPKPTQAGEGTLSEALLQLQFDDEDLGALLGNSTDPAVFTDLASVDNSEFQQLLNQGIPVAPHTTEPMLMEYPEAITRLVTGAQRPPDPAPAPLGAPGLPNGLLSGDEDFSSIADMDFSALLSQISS
Test [8] deals with T1, Epidermal growth factor receptor. Put plainly: Inhibition of EGFR (unknown origin) using biotin as substrate incubated for 2 hrs by HTRF assay.
In test [9] the target is Fibroblast growth factor receptor 4 (Homo sapiens, UniProt P22455). Put plainly: Inhibition of FGFR4 (unknown origin) using biotin as substrate incubated for 2 hrs by HTRF assay.
The test system of test [10] is A-431. Put plainly: Antiproliferative activity against human A-431 cells overexpressing wildtype EGFR assessed as cell growth inhibition incubated for 24 hrs. In kind it is functional.
The test system of test [11] is NCI-H1975. Kind of test: Antiproliferative activity against human H1975 cells overexpressing EGFR T790M/L858R assessed as cell growth inhibition incubated for 24 hrs. The test is classed as functional.
The test system of test [12] is MCF7. Kind of test: Antiproliferative activity against human MCF7 cells overexpressing HER2 assessed as cell growth inhibition incubated for 24 hrs. The test is classed as functional.
In test [13] the target is Tubulin. Kind of test: Inhibition of tubulin polymerization (unknown origin) by measuring absorbance. In kind it is protein-complex assay, Homo sapiens.
Test [14] has as its target T2, Histone deacetylase 1 (Homo sapiens, UniProt Q13547). Put plainly: Inhibition of HDAC1 (unknown origin).
The target of test [15] is T1, Epidermal growth factor receptor. Kind of test: Inhibition of EGFR (unknown origin).
In test [16] the target is T3, Protein deacetylase HDAC6 (Homo sapiens, UniProt Q9UBN7).
T3 sequence (Q9UBN7 whole entry): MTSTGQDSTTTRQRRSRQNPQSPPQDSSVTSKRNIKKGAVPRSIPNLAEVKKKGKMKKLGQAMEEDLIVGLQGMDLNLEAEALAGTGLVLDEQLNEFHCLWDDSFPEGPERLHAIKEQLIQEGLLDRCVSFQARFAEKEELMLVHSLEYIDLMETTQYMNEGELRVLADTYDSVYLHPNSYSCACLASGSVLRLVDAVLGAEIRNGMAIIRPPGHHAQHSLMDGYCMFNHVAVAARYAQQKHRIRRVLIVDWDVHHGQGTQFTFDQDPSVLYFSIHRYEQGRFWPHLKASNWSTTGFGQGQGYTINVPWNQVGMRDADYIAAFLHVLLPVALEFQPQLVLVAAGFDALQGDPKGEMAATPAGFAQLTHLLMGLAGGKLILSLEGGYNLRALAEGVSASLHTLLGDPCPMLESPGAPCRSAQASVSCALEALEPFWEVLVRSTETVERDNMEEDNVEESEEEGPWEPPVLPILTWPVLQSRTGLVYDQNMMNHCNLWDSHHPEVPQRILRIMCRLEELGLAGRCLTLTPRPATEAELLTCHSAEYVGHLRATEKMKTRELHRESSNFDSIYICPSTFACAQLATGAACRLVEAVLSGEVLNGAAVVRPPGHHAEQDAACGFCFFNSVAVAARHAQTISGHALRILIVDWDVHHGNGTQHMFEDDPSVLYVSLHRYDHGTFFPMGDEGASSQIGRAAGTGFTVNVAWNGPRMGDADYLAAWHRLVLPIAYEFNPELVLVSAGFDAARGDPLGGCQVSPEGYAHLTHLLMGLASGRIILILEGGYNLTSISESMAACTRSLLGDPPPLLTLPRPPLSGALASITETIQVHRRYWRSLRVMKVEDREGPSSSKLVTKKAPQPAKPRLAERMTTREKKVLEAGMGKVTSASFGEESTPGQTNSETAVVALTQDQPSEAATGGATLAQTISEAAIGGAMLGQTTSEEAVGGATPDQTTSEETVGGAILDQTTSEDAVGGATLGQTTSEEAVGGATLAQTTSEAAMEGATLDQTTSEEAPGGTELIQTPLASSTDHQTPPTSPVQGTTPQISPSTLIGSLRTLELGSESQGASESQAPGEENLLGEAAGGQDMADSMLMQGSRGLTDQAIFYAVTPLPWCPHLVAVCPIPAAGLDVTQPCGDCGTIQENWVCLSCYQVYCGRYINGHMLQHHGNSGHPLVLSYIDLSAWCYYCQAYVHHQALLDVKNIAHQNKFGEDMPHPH
Put plainly: Inhibition of HDAC6 (unknown origin).

In test [17] the test system is HT-29. Kind of test: Growth inhibition of human HT-29 cells incubated for 72 hrs by MTT assay. The test is classed as functional. In general terms: Tetrazolium assays rely on reduction of a dye to a coloured formazan, in cell work by metabolically active cells.
Test [18] concerns MDA-MB-231. Kind of test: Growth inhibition of human MDA-MB-231 cells incubated for 72 hrs by MTT assay. The test is classed as functional.
In test [19] the test system is MDA-MB-468. Kind of test: Growth inhibition of human MDA-MB-468 cells incubated for 72 hrs by MTT assay. In kind it is functional.
Test [20] concerns KG-1. Kind of test: Growth inhibition of human KG-1 cells incubated for 72 hrs by MTT assay. The test is classed as functional.
Test [21] addresses T2, Histone deacetylase 1. Kind of test: Inhibition of human recombinant HDAC1 expressed in insect High5 cells using baculovirus expression system using Ac-Lys-Tyr-Lys (epsilon-acetyl)-AMC as substrate incubated for 24 hrs by multilabel plate reader method. More on the design: species or system BTI-TN-5B1-4.
Test [22] concerns the target T3, Protein deacetylase HDAC6. Kind of test: Inhibition of human recombinant HDAC6 expressed in insect High5 cells using baculovirus expression system using Boc-Lys (epsilon-acetyl)-AMC as substrate incubated for 3 hrs by multilabel plate reader method. More on the design: species or system BTI-TN-5B1-4.
The target in test [23] is T1, Epidermal growth factor receptor. Kind of test: Inhibition of EGFR (unknown origin) using synthetic biotinylated peptide as substrate […] by microplate reader method relative to control.
The target of test [24] is Histone deacetylase 3 (Homo sapiens, UniProt O15379). Kind of test: Inhibition of human recombinant HDAC3 expressed in insect High5 cells using baculovirus expression system using Ac-Lys-Tyr-Lys (epsilon-acetyl)-AMC as substrate incubated for 24 hrs by multilabel plate reader method. More on the design: species or system BTI-TN-5B1-4.
Chain of Histone deacetylase 3 (O15379 whole entry): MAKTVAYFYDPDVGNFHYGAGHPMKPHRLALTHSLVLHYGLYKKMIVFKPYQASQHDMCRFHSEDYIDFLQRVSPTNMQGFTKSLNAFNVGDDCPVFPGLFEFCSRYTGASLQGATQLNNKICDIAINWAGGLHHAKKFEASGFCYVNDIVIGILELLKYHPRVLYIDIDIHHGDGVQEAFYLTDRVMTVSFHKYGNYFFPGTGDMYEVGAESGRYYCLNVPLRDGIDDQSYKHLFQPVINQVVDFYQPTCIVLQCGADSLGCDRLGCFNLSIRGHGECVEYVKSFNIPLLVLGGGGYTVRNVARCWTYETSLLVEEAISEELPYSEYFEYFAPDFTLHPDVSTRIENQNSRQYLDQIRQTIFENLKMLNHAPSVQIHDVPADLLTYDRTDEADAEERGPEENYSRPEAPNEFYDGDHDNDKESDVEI
For test [25], the target named is Receptor tyrosine-protein kinase erbB-2 (Homo sapiens, UniProt P04626). Kind of test: Inhibition of HER2 (unknown origin).
Chain of Receptor tyrosine-protein kinase erbB-2 (P04626 whole entry): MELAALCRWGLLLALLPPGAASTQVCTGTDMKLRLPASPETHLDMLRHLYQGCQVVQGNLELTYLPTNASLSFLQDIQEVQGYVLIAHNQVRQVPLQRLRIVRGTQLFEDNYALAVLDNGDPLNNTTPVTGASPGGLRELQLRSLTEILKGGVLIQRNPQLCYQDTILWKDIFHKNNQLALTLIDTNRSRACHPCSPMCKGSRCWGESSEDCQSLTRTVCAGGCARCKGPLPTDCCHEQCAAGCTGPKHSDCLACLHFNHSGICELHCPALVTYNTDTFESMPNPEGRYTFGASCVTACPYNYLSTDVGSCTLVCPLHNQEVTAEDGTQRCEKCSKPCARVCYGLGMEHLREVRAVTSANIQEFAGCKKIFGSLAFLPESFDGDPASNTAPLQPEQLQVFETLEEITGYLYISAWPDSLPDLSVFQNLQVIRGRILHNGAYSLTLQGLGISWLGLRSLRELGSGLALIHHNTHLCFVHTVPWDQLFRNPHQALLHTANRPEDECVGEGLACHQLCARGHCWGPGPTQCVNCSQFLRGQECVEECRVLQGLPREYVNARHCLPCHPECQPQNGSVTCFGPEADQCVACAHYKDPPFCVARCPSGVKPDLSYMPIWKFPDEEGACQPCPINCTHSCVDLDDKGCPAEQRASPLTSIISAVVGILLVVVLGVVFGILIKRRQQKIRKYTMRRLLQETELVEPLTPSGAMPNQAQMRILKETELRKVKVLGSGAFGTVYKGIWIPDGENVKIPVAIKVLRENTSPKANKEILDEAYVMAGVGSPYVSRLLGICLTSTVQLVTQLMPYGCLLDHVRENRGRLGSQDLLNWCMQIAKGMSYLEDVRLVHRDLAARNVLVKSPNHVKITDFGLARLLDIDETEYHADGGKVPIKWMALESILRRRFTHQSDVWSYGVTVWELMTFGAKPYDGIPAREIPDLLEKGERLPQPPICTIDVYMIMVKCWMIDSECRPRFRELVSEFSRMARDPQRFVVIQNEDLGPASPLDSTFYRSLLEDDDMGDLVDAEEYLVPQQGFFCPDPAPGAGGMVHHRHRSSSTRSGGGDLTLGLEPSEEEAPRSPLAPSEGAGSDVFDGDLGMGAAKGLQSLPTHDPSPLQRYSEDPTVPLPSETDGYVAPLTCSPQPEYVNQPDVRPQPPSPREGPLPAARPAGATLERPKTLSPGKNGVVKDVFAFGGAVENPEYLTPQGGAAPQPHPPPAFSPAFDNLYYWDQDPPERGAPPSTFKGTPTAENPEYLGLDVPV

T1 sequence (P00533 whole entry): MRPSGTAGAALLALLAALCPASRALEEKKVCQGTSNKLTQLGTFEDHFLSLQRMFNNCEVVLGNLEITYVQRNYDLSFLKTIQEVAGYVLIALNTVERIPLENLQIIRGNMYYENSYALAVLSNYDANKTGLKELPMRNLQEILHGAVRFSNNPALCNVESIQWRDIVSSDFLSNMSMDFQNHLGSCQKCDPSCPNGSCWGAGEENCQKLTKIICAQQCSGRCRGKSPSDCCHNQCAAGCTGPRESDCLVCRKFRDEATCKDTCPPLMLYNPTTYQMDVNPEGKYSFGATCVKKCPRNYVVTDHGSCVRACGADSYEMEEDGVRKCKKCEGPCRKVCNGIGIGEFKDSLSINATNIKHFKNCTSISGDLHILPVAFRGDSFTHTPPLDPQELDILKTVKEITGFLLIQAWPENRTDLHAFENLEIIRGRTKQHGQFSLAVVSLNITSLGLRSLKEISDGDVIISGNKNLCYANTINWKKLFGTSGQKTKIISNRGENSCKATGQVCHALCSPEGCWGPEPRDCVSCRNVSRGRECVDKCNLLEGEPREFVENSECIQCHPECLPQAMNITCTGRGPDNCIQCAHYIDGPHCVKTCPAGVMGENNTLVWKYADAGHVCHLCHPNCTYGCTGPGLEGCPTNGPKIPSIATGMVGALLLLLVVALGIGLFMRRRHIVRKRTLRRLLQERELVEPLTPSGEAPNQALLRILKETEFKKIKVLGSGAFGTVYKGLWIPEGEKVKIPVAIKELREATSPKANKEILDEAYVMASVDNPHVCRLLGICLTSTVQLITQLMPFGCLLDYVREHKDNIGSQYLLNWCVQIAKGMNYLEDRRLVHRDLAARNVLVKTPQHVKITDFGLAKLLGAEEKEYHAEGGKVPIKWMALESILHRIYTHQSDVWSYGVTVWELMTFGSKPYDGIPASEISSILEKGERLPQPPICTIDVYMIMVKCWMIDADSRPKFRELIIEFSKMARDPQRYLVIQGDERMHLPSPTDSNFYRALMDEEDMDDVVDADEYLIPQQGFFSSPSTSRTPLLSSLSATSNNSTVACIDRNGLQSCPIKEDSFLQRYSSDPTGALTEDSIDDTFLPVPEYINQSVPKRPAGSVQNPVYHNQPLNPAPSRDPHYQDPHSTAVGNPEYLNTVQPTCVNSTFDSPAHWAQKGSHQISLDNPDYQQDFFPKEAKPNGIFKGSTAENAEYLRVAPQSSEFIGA
T2 sequence (Q13547 whole entry): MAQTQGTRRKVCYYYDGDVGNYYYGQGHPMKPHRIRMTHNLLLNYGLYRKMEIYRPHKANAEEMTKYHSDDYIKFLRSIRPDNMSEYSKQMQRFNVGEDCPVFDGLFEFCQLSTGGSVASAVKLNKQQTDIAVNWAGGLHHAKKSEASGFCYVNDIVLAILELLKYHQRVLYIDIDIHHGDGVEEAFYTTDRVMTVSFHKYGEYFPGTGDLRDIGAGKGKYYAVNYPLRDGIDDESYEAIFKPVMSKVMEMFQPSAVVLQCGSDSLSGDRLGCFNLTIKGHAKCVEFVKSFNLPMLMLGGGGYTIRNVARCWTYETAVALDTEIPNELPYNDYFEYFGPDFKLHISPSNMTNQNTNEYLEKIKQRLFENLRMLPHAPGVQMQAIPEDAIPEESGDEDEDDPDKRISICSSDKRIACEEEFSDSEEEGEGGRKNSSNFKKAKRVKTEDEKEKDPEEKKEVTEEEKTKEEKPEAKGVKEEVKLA

In the case of `O=C(Nc1ccccc1C(=O)N/N=C/c1ccc(O)cc1O)c1ccco1`, the IC50 (in general, the concentration that inhibits the measured activity by half) stood at 87.6 nM in [1] and 85.4 nM in [2].

In the case of `O=C(Nc1ccc2ncnc(Nc3cccc(Br)c3)c2c1)c1ccc(C(F)(F)F)cc1O`, the GI50 (usually the concentration at which growth is held to half of that of the control) is 1640 nM in test [3], 490 nM in [4] and 670 nM in [5]. `Cn1cc(-c2ccnc(Nc3ccc(C(=O)NCCCCCCC(=O)NO)cc3)n2)c2ccccc21` registered an IC50 in [6] of 105 nM.

For the compound `FC(F)(F)c1csc(NC(=S)Nc2ccc3ncnc(Nc4cccc(Cl)c4)c3c2)n1`, the midpoint of inhibition in test [7], the IC50, lay at 600 nM. For `COc1cc2ncnc(Oc3ccc(NC(=O)Nc4cccc(C(F)(F)F)c4)c4ccccc34)c2cc1OC`, the results for the IC50 in test [8] and in [9] were 83.9 nM and 86.2 nM, respectively. For `CC(C)(O)CC(=O)NCCc1ccc2ncnc(Nc3ccc(Oc4cccc(C(F)(F)F)c4)c(Cl)c3)c2c1`, the values for the GI50 in test [10], in test [11] and in test [12] were 41 nM, 127 nM and 94 nM, respectively. Consider `CCOCCSc1nc(-c2ccccc2Cl)nn1CCOCC`, for which the IC50 in [13] was 10700 nM; in test [2], 86.7 nM. For the compound `O=C(CCCCn1cc(-c2ccc3ncnc(Nc4ccccc4F)c3c2)nn1)NO`, the IC50 in [14] is 1.1 nM; in test [15], 10.3 nM; in test [16], 4.3 nM. In the case of `Fc1cc(F)cc(NC(=S)Nc2ccc3ncnc(Nc4cccc(Cl)c4)c3c2)c1`, 300 nM corresponded to half-maximal inhibition in test [7] (IC50). `O=C(/C=C\c1ccc(OC(F)(F)F)cc1)c1ccc(Br)c2cc(-c3ccc(F)cc3)oc12` showed an IC50 in test [15] of 120 nM. `NS(=O)(=O)c1ccc(NC(=O)c2ccccc2NC(=O)c2ccco2)cc1`: the IC50 in test [1] worked out at 108 nM; in test [2] it was 31.2 nM. As to `COc1cc(Nc2ncnc3cc(-c4ccc(C)cc4)sc23)cc(OC)c1OC`, inhibition in [1] was half-maximal at 710 nM (IC50). As to `COc1cc(NC(=O)CCCCCCC(=O)NO)ccc1Nc1nccc(-c2cn(C)c3ccccc23)n1`, the GI50 came out at 790 nM in [17], 600 nM in test [18], 230 nM in test [19] and 240 nM in test [20]. For the compound `COc1ccc(/C=C\C(=O)c2ccc(Br)c3cc(-c4ccc(F)cc4)oc23)cc1`, in [15], the IC50 worked out at 90 nM. For the compound `COc1ccc(N(C)c2nc(N)nc3c(Cc4ccccc4)c[nH]c23)cc1`, in [1], the IC50 was more than 20000 nM.

Regarding `COc1cc2ncnc(Nc3cccc(/C=C/C(=O)NO)c3)c2cc1OCCCN1CCOCC1`, the values for the IC50 in test [21], in test [22] and in test [24] were 160 nM, 560 nM and 180 nM, respectively. Also, the inhibition (usually the change of the read-out against control, counted positive when it falls) in test [23] amounted to 9.7%. Regarding `S=C(NCc1ccccc1)Nc1ccc2ncnc(Nc3cccc(Br)c3)c2c1`, the IC50 in [7] was 4100 nM. Take `Cc1c(NC(=O)OC[C@@H]2COCCN2)cn2ncnc(Nc3ccc4c(cnn4Cc4cccc(F)c4)c3)c12` [AC-480]: in test [25], the IC50 was determined as 30 nM. The same measure, in the same setting: for `CCN1CCN(Cc2ccc(-c3cc4c(N[C@H](C)c5ccccc5)ncnc4[nH]3)cc2)CC1` [AEE-788] the value was 6 nM.
